This note sets out measurements from ChEMBL document CHEMBL2062475, “Langkolide, a 32-membered macrolactone antibiotic produced by Streptomyces sp. Acta 3062” (J Nat Prod, 2012).

In one assay the test system is Bacillus subtilis. The assay is described as follows: Antibacterial activity against Bacillus subtilis DSM 347 after 14 to 16 hrs by resazurin reduction assay. Format: functional, organism-based. Background: The colour change of resazurin is a common sign of viable cells or microbes.
In a further assay the test system is Mammaliicoccus lentus. The assay is described as follows: Antibacterial activity against Staphylococcus lentus DSM 6672 after 14 to 16 hrs by resazurin reduction assay. Format: functional, organism-based.
The test system of another assay is Candida albicans. Kind of assay: Antifungal activity against Candida albicans DSM 1386 after 14 to 16 hrs by resazurin reduction assay. The format is functional, organism-based.
The subject of the next assay is NIH3T3. Kind of assay: Cytotoxicity against mouse NIH/3T3 cells after 24 hrs by CellTiter-Blue assay. Format: functional, cell-based. Conditions: NIH3T3, 24 h.
The next assay deals with HT-29. Kind of assay: Cytotoxicity against human HT-29 cells after 24 hrs by CellTiter-Blue assay. Format: functional, cell-based. Conditions: HT-29, 24 h.
For another assay, the system named is HepG2. Kind of assay: Cytotoxicity against human HepG2 cells after 24 hrs by CellTiter-Blue assay. To be noted: HepG2, 24 h. The format is functional, cell-based.
The target of assay [1] is 3',5'-cyclic-AMP phosphodiesterase 4B (Homo sapiens, UniProt Q07343). The assay is described as follows: Inhibition of human recombinant PDE4B2 by HTS cAMP assay. Background: Cyclic AMP is a second messenger, typically raised through Gs and lowered through Gi signalling.
In a further assay the test system is Nakaseomyces glabratus. Kind of assay: Antifungal activity against Candida glabrata DSM 6425 after 14 to 16 hrs by resazurin reduction assay. The format is functional, organism-based.
Another assay relates to Cutibacterium acnes. The assay is described as follows: Antibacterial activity against Propionibacterium acnes DSM 1897 after 48 hrs by resazurin reduction assay. The format is functional, organism-based.
Assay [2] deals with Glycogen synthase kinase-3 beta (Homo sapiens, UniProt P49841). The assay is described as follows: Inhibition of recombinant GSK3beta by KinaseGlo assay. A general note: Kinase-Glo measures the ATP left after a reaction by luminescence.
The subject of the next assay is Xanthomonas campestris. The assay is described as follows: Antibacterial activity against Xanthomonas campestris DSM 2405 after 14 to 16 hrs by resazurin reduction assay. Format: functional, organism-based.

Calls of active or inactive are those of the source. The rule behind the calls is not given here.

3',5'-cyclic-AMP phosphodiesterase 4B, sequence (Q07343 whole entry): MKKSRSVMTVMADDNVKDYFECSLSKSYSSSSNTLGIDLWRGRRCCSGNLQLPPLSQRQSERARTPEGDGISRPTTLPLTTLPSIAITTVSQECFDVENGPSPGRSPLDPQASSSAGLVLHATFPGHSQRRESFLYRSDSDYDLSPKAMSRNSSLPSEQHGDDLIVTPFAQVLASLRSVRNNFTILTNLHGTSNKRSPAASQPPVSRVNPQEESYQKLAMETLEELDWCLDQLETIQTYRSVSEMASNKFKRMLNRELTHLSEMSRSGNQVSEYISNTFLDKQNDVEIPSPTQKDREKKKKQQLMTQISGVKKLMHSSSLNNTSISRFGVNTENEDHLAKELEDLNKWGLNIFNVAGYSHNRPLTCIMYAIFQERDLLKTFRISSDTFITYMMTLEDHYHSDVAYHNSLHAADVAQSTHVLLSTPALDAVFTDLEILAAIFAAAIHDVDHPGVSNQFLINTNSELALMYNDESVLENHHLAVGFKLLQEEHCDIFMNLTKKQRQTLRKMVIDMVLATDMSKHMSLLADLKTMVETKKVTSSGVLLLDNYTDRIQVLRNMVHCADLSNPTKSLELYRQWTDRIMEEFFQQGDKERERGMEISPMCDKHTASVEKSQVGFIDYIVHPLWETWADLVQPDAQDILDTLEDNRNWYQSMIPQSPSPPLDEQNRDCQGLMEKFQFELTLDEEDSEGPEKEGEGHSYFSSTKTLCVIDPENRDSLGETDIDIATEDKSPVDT
Glycogen synthase kinase-3 beta, sequence (P49841 whole entry): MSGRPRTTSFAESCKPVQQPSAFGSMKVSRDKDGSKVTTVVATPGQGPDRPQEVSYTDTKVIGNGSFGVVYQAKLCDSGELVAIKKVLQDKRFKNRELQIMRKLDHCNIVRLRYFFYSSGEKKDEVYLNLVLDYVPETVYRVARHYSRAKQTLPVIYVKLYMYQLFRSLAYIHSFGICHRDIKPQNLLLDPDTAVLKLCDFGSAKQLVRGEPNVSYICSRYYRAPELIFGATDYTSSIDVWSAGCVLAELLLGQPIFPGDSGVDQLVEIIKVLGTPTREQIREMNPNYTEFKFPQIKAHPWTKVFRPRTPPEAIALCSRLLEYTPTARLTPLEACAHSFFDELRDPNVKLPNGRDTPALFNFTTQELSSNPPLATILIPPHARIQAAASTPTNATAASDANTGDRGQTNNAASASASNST

As a reminder, the IC50 is the concentration that inhibits the measured activity by half. For `CC(=O)O[C@H]1C[C@@H](O)C[C@H](O)C[C@@H](O)[C@@H]2O[C@H]2[C@@H](C)[C@@H]([C@@H](C)[C@@H](O)[C@H](C)[C@@H](O)[C@@H](C)[C@@H](C)O[C@H]2CC[C@H](O[C@@H]3CC[C@@H](OC(=O)[C@H](C)[C@@H](O)/C(C)=C/c4ccc5c(c4)C(=O)C=CC5=O)[C@H](C)O3)[C@H](C)O2)OC(=O)/C=C/[C@H](C)[C@@H](O)C[C@H](O)/C=C/CC[C@@H](C)[C@@H](O)[C@H](O)[C@@]2(O)O[C@@H](C1)C[C@@H](O)[C@@H]2O` [LANGKOLIDE], the result in the assay with Bacillus subtilis, in the assay on Mammaliicoccus lentus, in the assay on Cutibacterium acnes and with Xanthomonas campestris was inactive. Also, the IC50 with Candida albicans turned out to be 1.23 µM; with NIH3T3 it was 0.49 µM; in the assay on HT-29, 1.38 µM; in the assay on HepG2 it was 2.41 µM; in assay [1] it was 0.48 µM; with Nakaseomyces glabratus it was 1 µM. Moreover, in assay [2], the IC50 is 2.17 µM.
